# Patent US20230097090A1, “IMPROVED LIPID NANOPARTICLES FOR DELIVERY OF NUCLEIC ACIDS” (ACUITAS THERAPEUTICS, INC., priority 2019, published 2023)
# Assay: pKa of representative cationic lipids
# Assay type: physicochemical
# Conditions: Table 2, lipids of Formula (II)
row,pKa,SMILES
1,6.14,CCCCC(CCCC)OC(=O)CCCCCCCCC(CCCCCCCCC(=O)OC(CCCC)CCCC)N(CCCN(C)C)C(=O)CCCCCCCC(=O)OC(CCCC)CCCC [II-24]
2,6.27,CCCCCCCCC(=O)N(CCCN(C)C)C(CCCCCCCCCOC(=O)C(CCCC)CCCCCC)CCCCCCCCCOC(=O)C(CCCC)CCCCCC (stereo not shown) [II-17]

# Same assay, conditions: first Table 12, representative lipid compounds XIII
row,pKa,SMILES
1,6.2,CCCCCCCCCN(C(=O)CCN(C)C)C(CCCCCCCCC(=O)OCC(CCCC)CCCCCC)CCCCCCCCC(=O)OCC(CCCC)CCCCCC (stereo not shown) [XIII-25]
2,6.83,CCCCCCCCCCN(C(=O)CCCCN1CCCC1)C(CCCCCCCCC(=O)OCC(CCCC)CCCCCC)CCCCCCCCC(=O)OCC(CCCC)CCCCCC (stereo not shown) [XIII-9]
3,6.74,CCCCCCCCCCN(C(=O)CCCCN(C)C)C(CCCCCCCCC(=O)OCC(CCCC)CCCCCC)CCCCCCCCC(=O)OCC(CCCC)CCCCCC (stereo not shown) [XIII-7]
4,6.68,CCCCCCCCCCN(C(=O)CCCCN(CC)CC)C(CCCCCCCCC(=O)OCC(CCCC)CCCCCC)CCCCCCCCC(=O)OCC(CCCC)CCCCCC (stereo not shown) [XIII-8]
5,6.77,CCCCCCCCCCN(C(=O)CCCN(C)C)C(CCCCCC(=O)OCC(CCCCCC)CCCCCCCC)CCCCCC(=O)OCC(CCCCCC)CCCCCCCC (stereo not shown) [XIII-16]
6,6.47,CCCCCCCCCCN(C(=O)CCCN(C)C)C(CCCCCCCCC(=O)OCC(CCCC)CCCCCC)CCCCCCCCC(=O)OCC(CCCC)CCCCCC (stereo not shown) [XIII-18]

# Continued, molecule first:
row,SMILES,pKa
1,CCCCCCCCCCN(C(=O)CCCCN(CCCC)CCCC)C(CCCCCCCCC(=O)OCC(CCCC)CCCCCC)CCCCCCCCC(=O)OCC(CCCC)CCCCCC (stereo not shown) [XIII-31],5.05
2,CCCCCCCCCCN(C(=O)CCCN1CCCC1)C(CCCCCC(=O)OCC(CCCCCC)CCCCCCCC)CCCCCC(=O)OCC(CCCCCC)CCCCCCCC (stereo not shown) [XIII-29],6.81
3,CCCCCCCCCN(C(=O)CCCN(C)C)C(CCCCCCCCCOC(=O)C(CCCC)CCCCCC)CCCCCCCCCOC(=O)C(CCCC)CCCCCC (stereo not shown) [XIII-32],6.41
4,CCCCCCC(CCCC)COC(=O)CCCCCCCCC(CCCCCCCCC(=O)OCC(CCCC)CCCCCC)N(CC(CC)CCCC)C(=O)CCCN(C)C (stereo not shown) [XIII-20],6.84
5,CCCCCCCCCCN(C(=O)CCN1CCCC1)C(CCCCCCCCC(=O)OCC(CCCC)CCCCCC)CCCCCCCCC(=O)OCC(CCCC)CCCCCC (stereo not shown) [XIII-33],6.19
